# Assay results published in article PMC4298667, “Chemical and protein structural basis for biological crosstalk between PPARα and COX enzymes” (Journal of Computer-Aided Molecular Design, 2014).
# What was measured:
# COX-1 [1] = molecular target: T1, COX-1 (Homo sapiens, UniProt P23219); assay: microsomal enzyme assay, percent inhibition at […] (marginal, […], at […]); assay type: biochemical; set-up: gene PTGS1; recombinant human COX-1, microsomes from transfected Sf9 cells
# COX-1 [2] = molecular target: T1, COX-1; set-up: gene PTGS1
# COX-1 [3] = molecular target: T1, COX-1; assay: microsomal enzyme assay, percent inhibition at […] (only […] at […]); assay type: cell-free; set-up: gene PTGS1; recombinant human COX-1, microsomes from transfected Sf9 cells
# T1 sequence (P23219 24-599): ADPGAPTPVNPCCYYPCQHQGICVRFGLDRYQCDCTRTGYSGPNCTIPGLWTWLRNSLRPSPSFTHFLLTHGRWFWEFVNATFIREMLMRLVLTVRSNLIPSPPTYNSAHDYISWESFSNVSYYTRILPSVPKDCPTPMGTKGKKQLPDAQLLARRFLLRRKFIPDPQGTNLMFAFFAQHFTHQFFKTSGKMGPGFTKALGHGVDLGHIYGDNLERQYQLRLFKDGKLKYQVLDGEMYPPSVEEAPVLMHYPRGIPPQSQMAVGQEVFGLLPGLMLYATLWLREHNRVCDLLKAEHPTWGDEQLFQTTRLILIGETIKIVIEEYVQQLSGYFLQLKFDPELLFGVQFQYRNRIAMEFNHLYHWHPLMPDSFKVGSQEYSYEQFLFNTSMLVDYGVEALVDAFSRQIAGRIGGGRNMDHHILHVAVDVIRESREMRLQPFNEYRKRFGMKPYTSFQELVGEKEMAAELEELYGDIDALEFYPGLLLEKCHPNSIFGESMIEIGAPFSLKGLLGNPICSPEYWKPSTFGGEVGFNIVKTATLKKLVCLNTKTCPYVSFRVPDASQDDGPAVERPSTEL
smiles,measurement,setting,value
CC(C)(Oc1ccc(Cl)cc1)C(=O)O [clofibric acid],inhibition at 250 µM,COX-1 [1],14%
CC(C)(Oc1ccc(C(=O)c2ccc(Cl)cc2)cc1)C(=O)O [fenofibric acid],IC50,COX-1 [2],950 µM
Cc1ccc(C)c(OCCCC(C)(C)C(=O)O)c1 [gemfibrozil],inhibition at 250 µM,COX-1 [3],18%
